Test results as given in PubChem BioAssay AID1259411 (Chemical Carcinogenesis Research Information System (CCRIS), 2018).
The source made the active and inactive calls. How the calls were made is not given here.

System: rodent carcinogenicity bioassays, tumor incidence
Assay: CCRIS carcinogenicity studies
Summary of the method: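 Archive of carcinogenicity, mutagenicity, tumor promotion and tumor inhibition results drawn from journals, NCI reports and other sources, expert-reviewed; covers 1985-2011 and is no longer updated.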

Clc1ccc(Cl)cc1 was tested, and the carcinogen call (Species: MOUSE, Strain/Sex: B6C3F1/FEMALE, Route: GAVAGE, Dose: 0, 300, 600 MG/KG IN CORN OIL 5 D/WK FOR 103 WK, Dose: 0, 300, 600 MG/KG IN CORN OIL 5 D/WK FOR 103 WK, Tumor Site: Type of Lesion: LIVER: HEPATOCELLULAR ADENOMA, HEPATOCELLULAR CARCINOMA) was “active; positive”, the carcinogen call (Species: MOUSE, Strain/Sex: B6C3F1/MALE, Route: GAVAGE, Dose: 0, 300, 600 MG/KG IN CORN OIL 5 D/WK FOR 103 WK, Dose: 0, 300, 600 MG/KG IN CORN OIL 5 D/WK FOR 103 WK, Tumor Site: Type of Lesion: LIVER: HEPATOCELLULAR ADENOMA, HEPATOCELLULAR CARCINOMA) was “active; positive” and the carcinogen call (Species: MOUSE, Strain/Sex: CRJ:BDF1/FEMALE, Route: INHALATION, Dose: 0, 20, 75, 300 PPM 6 HR/D, 5 D/WK FOR 2 YRS (STUDY DURATION: 2 YRS), Dose: 0, 20, 75, 300 PPM 6 HR/D, 5 D/WK FOR 2 YRS (STUDY DURATION: 2 YRS), Tumor Site: Type of Lesion: LIVER: HEPATOCELLULAR ADENOMA, LIVER: HEPATOCELLULAR CARCINOMA, LIVER: HEPATOBLASTOMA, Tumor Site: Type of Lesion: LIVER: HEPATOCELLULAR ADENOMA, LIVER: HEPATOCELLULAR CARCINOMA, LIVER: HEPATOBLASTOMA) was “active; positive”. The carcinogen call (Species: MOUSE, Strain/Sex: CRJ:BDF1/MALE, Route: INHALATION, Dose: 0, 20, 75, 300 PPM 6 HR/D, 5 D/WK FOR 2 YRS (STUDY DURATION: 2 YRS), Dose: 0, 20, 75, 300 PPM 6 HR/D, 5 D/WK FOR 2 YRS (STUDY DURATION: 2 YRS), Tumor Site: Type of Lesion: LIVER: HEPATOCELLULAR CARCINOMA, LIVER: HEPATOBLASTOMA, HISTIOCYTIC SARCOMA, Tumor Site: Type of Lesion: LIVER: HEPATOCELLULAR CARCINOMA, LIVER: HEPATOBLASTOMA, HISTIOCYTIC SARCOMA) was “active; positive”, the carcinogen call (Species: RAT, Strain/Sex: F344/FEMALE, Route: GAVAGE, Dose: 0, 300, 600 MG/KG IN CORN OIL 5 D/WK FOR 103 WK, Dose: 0, 300, 600 MG/KG IN CORN OIL 5 D/WK FOR 103 WK) was “inactive; negative” and the carcinogen call (Species: RAT, Strain/Sex: F344/MALE, FEMALE, Route: INHALATION, Dose: 0, 20, 75, 300 PPM 6 HR/D, 5 D/WK FOR 2 YRS (STUDY DURATION: 2 YRS), Dose: 0, 20, 75, 300 PPM 6 HR/D, 5 D/WK FOR 2 YRS (STUDY DURATION: 2 YRS)) was “inactive; negative”. For the same compound, the carcinogen call (Species: RAT, Strain/Sex: F344/MALE, Route: GAVAGE, Dose: 0, 150, 300 MG/KG IN CORN OIL 5 D/WK FOR 103 WK, Dose: 0, 150, 300 MG/KG IN CORN OIL 5 D/WK FOR 103 WK, Tumor Site: Type of Lesion: KIDNEY: TUBULAR CELL ADENOCARCINOMA, TUBULAR CELL ADENOMA OR ADENOCARCINOMA) was “active; positive”.
In the case of CCN(CC)CCCC(C)Nc1c2ccc(Cl)cc2nc2ccc(OC)cc12 (stereo not given), the carcinogen call (Species: Mouse, Strain/Sex: CD-1/Female (23/24)/(24/24)(23/24)(22/23), Route: Intraperitoneal, Dose: 0, 10, 50, 150 mg/kg on days 8 and 15 after birth (Study duration: 52 weeks) (Test material solvent: 1% w/v carboxymethy, Dose: 0, 10, 50, 150 mg/kg on days 8 and 15 after birth (Study duration: 52 weeks) (Test material solvent: 1% w/v carboxymethy) is reported as “inactive; negative” and the carcinogen call (Species: Mouse, Strain/Sex: CD-1/Male (32/32)/(23/24)(23/24)(25/25), Route: Intraperitoneal, Dose: 0, 10, 50, 150 mg/kg on days 8 and 15 after birth (Study duration: 52 weeks) (Test material solvent: 1% w/v carboxymethy, Dose: 0, 10, 50, 150 mg/kg on days 8 and 15 after birth (Study duration: 52 weeks) (Test material solvent: 1% w/v carboxymethy) is reported as “inactive; negative”.
For N[C@@H](CCC(=O)N[C@@H](CSc1cc(O)c(SC[C@H](NC(=O)CC[C@H](N)C(=O)O)C(=O)NCC(=O)O)c(SC[C@H](NC(=O)CC[C@H](N)C(=O)O)C(=O)NCC(=O)O)c1O)C(=O)NCC(=O)O)C(=O)O, the carcinogen call (Species: RAT, Strain/Sex: EKER(TSC2 MUTANT)/MALE, Route: INTRAPERITIONEAL, Dose: 0, 2.5 UMOL/KG BW 5 BW 5 D/WK FOR 4 MO FOLLOWED BY 3.5 UMOL/KG BW 5 D/WK FOR 6 MO (STUDY DURATION: 10 MO), Tumor Site: Type of Lesion: KIDNEY: ADENOMA OR CARCINOMA) was “active; positive”.
CCCN(CCC)N=O was tested, and the carcinogen call (Species: HAMSTER, Route: SUBCUTANEOUS, Tumor Site: Type of Lesion: RESPIRATORY TRACT, LUNG) was “active; positive”, the carcinogen call (Species: RAT, Route: ORAL, Tumor Site: Type of Lesion: LIVER) was “active; positive” and the carcinogen call (Species: RAT, Route: SUBCUTANEOUS, Tumor Site: Type of Lesion: NASAL CAVITY, LIVER) was “active; positive”.
In the case of O=NN1CCOCC1, the carcinogen call (Species: FISH, Route: ORAL, Tumor Site: Type of Lesion: LIVER) is reported as “active; positive”, the carcinogen call (Species: HAMSTER, Route: ORAL, Tumor Site: Type of Lesion: LIVER) is reported as “active; positive” and the carcinogen call (Species: HAMSTER, Route: SUBCUTANEOUS, Tumor Site: Type of Lesion: TRACHEA, NASAL CAVITY) is reported as “active; positive”. The carcinogen call (Species: HAMSTER, Strain/Sex: SYRIAN/MALE, Route: INHALATION, Dose: 0, 14.4 MG/M3 4 HR/D 4-5 D/WK FOR 5 WK FOR A DAILY DOSE OF 0, 1.8 MG/KG (STUDY DURATION: 91 WK), Dose: 0, 14.4 MG/M3 4 HR/D 4-5 D/WK FOR 5 WK FOR A DAILY DOSE OF 0, 1.8 MG/KG (STUDY DURATION: 91 WK), Tumor Site: Type of Lesion: LIVER: HEPATOCELLULAR CARCINOMA OR HEMANGIOENDOTHELIOMA OR CARCINOMA, FORESTOMACH: PAPILLOMA, TRACHEA: PAPILLOMA, Tumor Site: Type of Lesion: LIVER: HEPATOCELLULAR CARCINOMA OR HEMANGIOENDOTHELIOMA OR CARCINOMA, FORESTOMACH: PAPILLOMA, TRACHEA: PAPILLOMA) was “active; positive”, the carcinogen call (Species: HAMSTER, Strain/Sex: SYRIAN/MALE, Route: INTRAGASTRIC, Dose: 0, 26 MG/ML IN 0.2 ML STERILIZED WATER 1/WK FOR 26 WK (TOTAL DOSE 135 MG) (STUDY DURATION: LIFESPAN), Tumor Site: Type of Lesion: NASAL CAVITY: CARCINOMA, TRACHEA: ADENOMA) was “active; positive” and the carcinogen call (Species: MOUSE, Route: ORAL, Tumor Site: Type of Lesion: LIVER, LUNG) was “active; positive”. The carcinogen call (Species: MOUSE, Strain/Sex: STRAIN-A/FEMALE, Route: ORAL, Dose: 0, 0.2 UMOL/ML IN DRINKING WATER FOR 10 WK (TOTAL DOSE: 0, 54 UMOL) FOLLOWED BY TAP WATER FOR 20 WK (STUDY DURATION: 30, Tumor Site: Type of Lesion: LUNG: TUMORS) was “active; positive”, the carcinogen call (Species: RAT, Route: ORAL, Tumor Site: Type of Lesion: KIDNEY, LIVER) was “active; positive” and the carcinogen call (Species: RAT, Strain/Sex: F344/FEMALE, Route: GAVAGE, Dose: 0, 10 MG/WK FOR A TOTAL DOSE OF 1.9 MMOL (STUDY DYRATION: 30 WK), Tumor Site: Type of Lesion: ESOPHAGUS: TUMOR, LIVER: TUMOR, THYROID: TUMOR, Tumor Site: Type of Lesion: ESOPHAGUS: TUMOR, LIVER: TUMOR, THYROID: TUMOR) was “active; positive”. For the same compound, the carcinogen call (Species: RAT, Strain/Sex: F344/FEMALE, Route: INTRAVESICULAR, Dose: 0, 5 MG IN 0.2 ML ETHANOL: DEIONIZED WATER (1:3) 2/WK FOR 30 WK (TOTAL DOSE 2.6 MMOL) (STUDY DURATION: LIFESPAN), Tumor Site: Type of Lesion: LIVER: TUMOR, NASAL MUCOSA: TUMOR, ESOPHAGUS: TUMOR, Tumor Site: Type of Lesion: LIVER: TUMOR, NASAL MUCOSA: TUMOR, ESOPHAGUS: TUMOR) was “active; positive”, the carcinogen call (Species: RAT, Strain/Sex: F344/FEMALE, Route: ORAL, Dose: 0, 26.5 MG/L IN DRINKING WATER 5 D/WK FOR 50 WK (TOTAL DOSE: 0; 1.1 MMOL) (STUDY DURATION: 124 WK), Dose: 0, 26.5 MG/L IN DRINKING WATER 5 D/WK FOR 50 WK (TOTAL DOSE: 0; 1.1 MMOL) (STUDY DURATION: 124 WK), Tumor Site: Type of Lesion: LIVER: HEPATOCELLULAR TUMOR, HEMANGIOSARCOMA) was “active; positive” and the carcinogen call (Species: RAT, Strain/Sex: F344/FEMALE, Route: ORAL, Dose: 40 MG/L IN DRINKING WATER FOR 50 WK, Tumor Site: Type of Lesion: LIVER: HEPATOCELLULAR CARCINOMA, HEMANGIOENDOTHELIAL SARCOMA, ESOPHAGUS: PAPILLOMA, CARCINOMA) was “active; positive”. For the same compound, the carcinogen call (Species: RAT, Strain/Sex: F344/MALE, Route: ORAL, Dose: 0, 0.02% IN DRINKING WATER FOR 8 WK (STUDY DURATION: 20 WK), Tumor Site: Type of Lesion: LIVER: HEPATOCELLULAR CARCINOMA) was “active; positive”, the carcinogen call (Species: RAT, Strain/Sex: F344/MALE, Route: ORAL, Dose: 16, 40 MG/L IN DRINKING WATER FOR 50 WK, Tumor Site: Type of Lesion: LIVER: HEPATOCELLULAR CARCINOMA, HEMANGIOENDOTHELIAL SARCOMA, ESOPHAGUS: PAPILLOMA) was “active; positive” and the carcinogen call (Species: RAT, Strain/Sex: SD/G/MALE, Route: ORAL, Dose: 0, 0.02% IN DRINKING WATER FOR 8 WK (STUDY DURATION: 20 WK)) was “inactive; negative”. The carcinogen call (Species: RAT, Strain/Sex: SPRAGUE-DAWLEY/FEMALE, Route: INHALATION, Dose: 0, 7.7 MG/M3 4 HR/D 4-5 D/WK FOR 6 WK FOR A DAILY DOSE OF 0, 0.5 MG/KG (STUDY DURATION: 124 WK), Dose: 0, 7.7 MG/M3 4 HR/D 4-5 D/WK FOR 6 WK FOR A DAILY DOSE OF 0, 0.5 MG/KG (STUDY DURATION: 124 WK), Tumor Site: Type of Lesion: LIVER: HEPATOCELLULAR CARCINOMA, NEOPLASTIC NODULE) was “active; positive” and the carcinogen call (Species: RAT, Strain/Sex: WS/MALE, Route: ORAL, Dose: 0, 0.02% IN DRINKING WATER FOR 8 WK (STUDY DURATION: 20 WK), Tumor Site: Type of Lesion: LIVER: HEPATOCELLULAR CARCINOMA) was “active; positive”.
